Assay results from a melting point compilation (Tetko et al.; mined from patent text by program, amines drawn as free bases though some values may be those of a salt).

Which melting point does the source give for `COc1cccc(CNc2nccc(-c3cc(N4CCN(CCCN5CCCC5)CC4)c4cc(OC)ccc4c3)n2)c1` here?
Its melting point is 160 to 167 °C.

For `CS(=O)(=O)c1ccc(Cl)cc1Cl`, which melting point is on record?
Its melting point is 71 °C.

Which melting point does the source give for `Nc1ccc2c(OCc3nc4ccccc4s3)cccc2c1` here?
Its melting point is 141 to 143 °C.

For `CNC(=S)N1CCc2c(ncn2C)C1`, which melting point is on record?
The melting point was 238 °C.

For `N#Cc1ccc(N2C(=O)[C@@H]3[C@H](O)CCN3C2=O)c2ccccc12` (relative stereo), which melting point is on record?
The melting point was 224 to 225 °C.

With `CC1Sc2c(C(=O)O)c(=O)c3cc(F)c(N4CCC(N)C4)cc3n21` (stereo unspecified) as the molecule, how does the melting point read?
Its melting point is 238 to 240 °C.

With `Cc1cccc(C(=O)OC2CCN(Cc3ccccc3)CC2)c1` as the molecule, how does the melting point read?
The melting point was 45 to 46 °C.

With `Cc1noc(C=Cc2ccccc2O)n1` as the molecule, how does the melting point read?
The melting point was 184 to 186 °C.

Which melting point does the source give for `Cc1ccccc1N(CC(=O)OC(C)(C)C)C(=O)CN1C(=O)c2ccccc2C1=O` here?
Its melting point is 140 °C.

Which melting point does the source give for `Cc1ccc(-c2cncc(OC3SCC(O)C(O)C3O)c2)cc1C` (stereo unspecified) here?
The melting point was 184 °C.

Which melting point does the source give for `CCn1cc(C(=O)O)c(=O)c2cc(F)c(C3NCC4CCC3N4C)c(F)c21` (stereo unspecified) here?
Its melting point is 184 to 187 °C.

For `COc1ccc(C(=O)N2CCN(c3ccc([N+](=O)[O-])c(C=O)c3)CC2)cc1OC`, which melting point is on record?
Its melting point is 196 to 198 °C.

With `O=C(/C=C/c1cccc(S(=O)(=O)N2CCN(C/C=C/c3ccccc3)CC2)c1)NO` as the molecule, how does the melting point read?
The melting point was 178 °C.

For `CC(C)(C)OC(=O)N1CC2CC(CN(CC(O)COc3ccccc3)C2)C1` (stereo unspecified), which melting point is on record?
Its melting point is 86 to 88 °C.

For `Cn1c(=O)c2c(ncn2Cc2noc(O)n2)n(C)c1=O`, which melting point is on record?
The melting point was 206 to 207 °C.

With `CCCOc1ccccc1-c1nc(O)cc(C(=O)O)n1` as the molecule, how does the melting point read?
Its melting point is 180 to 182 °C.

For `CCCCCCCCSc1ccc(CC(COC(C)=O)(COC(C)=O)NC(C)=O)cc1`, which melting point is on record?
The melting point was 71 to 74 °C.

Which melting point does the source give for `Cn1ccc2ccc(-c3ccc(C(C)(C)C)cc3)cc21` here?
Its melting point is 92 to 94 °C.

For `COc1cncc(-c2cccc(OC3SCC(OC(C)=O)C(OC(C)=O)C3OC(C)=O)c2)c1` (stereo unspecified), which melting point is on record?
The melting point was 167 °C.

Which melting point does the source give for `COCCCOc1ccc(-c2nc(C(=O)Nc3nccs3)c(-c3ccc(Cl)cc3)[nH]2)cc1` here?
The melting point was 173 to 177 °C.

Which melting point does the source give for `CC(C)n1nc(-c2c(-c3ccccc3)nn3ccc(N4CCCC4=O)cc23)ccc1=O` here?
Its melting point is 266 to 267 °C.

With `COc1ccccc1N1CCN(CC(O)COc2cccc3c2CCCC3=O)CC1` (stereo unspecified) as the molecule, how does the melting point read?
Its melting point is 120 °C.

Which melting point does the source give for `CN(CC(=O)c1ccc(N(C)C)cc1)Cc1cc2c(=O)c(C(=O)NCc3ccc(Cl)cc3)cn(C)c2s1` here?
Its melting point is 162 °C.

For `CC(=O)Oc1ccc(C(=O)N2CCN(C(N)=O)C2=O)cc1OC(C)=O`, which melting point is on record?
Its melting point is 222 to 224 °C.

With `CNC(=O)Cc1c(-c2ccccc2)nc2n(C)c3ccc(C)cc3n12` as the molecule, how does the melting point read?
Its melting point is 251 to 253 °C.

For `COC(=O)c1cn2c(NCCCCCCNS(=O)(=O)c3ccccc3[N+](=O)[O-])nsc2n1`, which melting point is on record?
The melting point was 148 to 149 °C.

With `CC1(O)CN(c2ccc([N+](=O)[O-])cc2F)C1` as the molecule, how does the melting point read?
The melting point was 109 to 110 °C.

For `CCCCCC(Oc1ccc(C2=CCCCC2)cc1)C(=O)O` (stereo unspecified), which melting point is on record?
The melting point was 78 to 80 °C.

Which melting point does the source give for `COCc1c(C=NO)ncc2[nH]c3cccc(Cc4ccc(Cl)cc4)c3c12` here?
The melting point was 224 to 228 °C.

Which melting point does the source give for `CC(Oc1ccc(Oc2ccc(C(F)(F)F)cc2)cc1)C(=O)OCC#N` (stereo unspecified) here?
The melting point was 53 to 56 °C.

For `Cc1ccc(Sc2c(SCc3ccccc3)cc(C(=O)O)cc2S(=O)(=O)Cl)cc1`, which melting point is on record?
Its melting point is 188 to 190 °C.

Which melting point does the source give for `Cc1nnc2ncc(-c3ccccc3)cn12` here?
The melting point was 199 to 200 °C.

Which melting point does the source give for `CCCCCCCCCCCCCCN(O)C(=O)N(C)C` here?
Its melting point is 64 to 66 °C.

With `Cc1oc2ccccc2c1C(=O)c1ccc(Cl)c(S(N)(=O)=O)c1` as the molecule, how does the melting point read?
The melting point was 183 °C.

For `CCn1c(=O)c2c(nc(/C=C/c3ccc(OCC(C)=O)c(OC)c3)n2C)n(CC)c1=O`, which melting point is on record?
The melting point was 206 °C.

With `C=C(Sc1ccc(Br)cc1)S(=O)(=O)c1ccc(Cl)cc1` as the molecule, how does the melting point read?
The melting point was 45 to 95 °C.

With `CC(C)CC(=O)NC(=O)c1nnn(Cc2ccccc2)c1NC(=O)CC(C)C` as the molecule, how does the melting point read?
Its melting point is 125 to 128 °C.

Which melting point does the source give for `CCn1c(=O)c(-c2c(Cl)cccc2Cl)cc2cnc(Nc3cc(OC)c(OC)c(OC)c3)nc21` here?
Its melting point is 275 to 278 °C.

For `c1ccc2oc(COc3ccc(CCCn4ccnc4)cc3)nc2c1`, which melting point is on record?
Its melting point is 81 to 82 °C.

Which melting point does the source give for `COc1ccc(C(=O)O)cc1Oc1ccccc1` here?
The melting point was 186 to 187 °C.

Which melting point does the source give for `COc1ccc2c(=O)c(-c3ccccc3)coc2c1` here?
The melting point was 156 to 158 °C.

With `Cc1ccc(-c2cc[nH]c2C=O)cc1` as the molecule, how does the melting point read?
Its melting point is 149 to 150 °C.

Which melting point does the source give for `Fc1cccc(F)c1-c1cncnc1` here?
Its melting point is 67 to 69 °C.

Which melting point does the source give for `Nc1c(Cl)cc(C(O)CNCCCCCCOCCCCc2ncccc2O)cc1Cl` (stereo unspecified) here?
The melting point was 95 to 96 °C.

For `CCCc1cc2cccc(C(=O)OCOC(=O)C(C)(C)C)c2n1Cc1ccc(-c2ccccc2-c2nnn[nH]2)cc1`, which melting point is on record?
Its melting point is 101 to 103 °C.

With `N#CC(=NNc1ccc(C2=NNC(=O)CC2)cc1)C(N)=C(C#N)C#N` as the molecule, how does the melting point read?
The melting point was greater than 300 °C.

With `CNC(=O)[C@@H](C[C@H](O)[C@H](CC1CCCCC1)NC(=O)[C@H](Cc1cscn1)NC(=O)[C@@H](CC(=O)N1CCOCC1)Cc1ccc(OC)cc1)C(C)C` as the molecule, how does the melting point read?
Its melting point is 128 to 130 °C.

With `COc1ccc(C(=O)NC(=S)Nc2ccccc2C(N)=O)cc1` as the molecule, how does the melting point read?
Its melting point is 193 to 196 °C.

For `CN(C(=O)OC(C)(C)C)c1sc(-c2cccnc2)nc1Cl`, which melting point is on record?
The melting point was 119 to 122 °C.

For `CC(=O)NC(=O)CCCCBr`, which melting point is on record?
The melting point was 88 to 90 °C.

With `CCOc1nnc(NCc2ccc(OC)c(Cl)c2)c2cc(Cl)ccc12` as the molecule, how does the melting point read?
Its melting point is 111 to 115 °C.

With `CCOC(=O)C1=Cc2ccc(O)cc2OCC1` as the molecule, how does the melting point read?
The melting point was 131 to 132 °C.

Which melting point does the source give for `CCOC(=O)C1COc2c(C=O)cc(Cl)c(Cl)c2O1` (stereo unspecified) here?
The melting point was 110 to 113 °C.

With `CCNC(=O)CNC(=S)c1cccnc1` as the molecule, how does the melting point read?
Its melting point is 136 to 138 °C.

For `CCOCC(=Nc1ccc(Cl)cc1C(F)(F)F)n1ccnc1`, which melting point is on record?
The melting point was 49 to 52 °C.

With `O=C(Cl)c1ccc(C#Cc2ccccc2C(=O)Cl)cc1` as the molecule, how does the melting point read?
Its melting point is 79 to 85 °C.

For `Fc1ccc2c(c1)C(c1ccccc1F)=NCCN2C1=NCCO1`, which melting point is on record?
Its melting point is 180 to 181 °C.

With `CCOC(=O)/C=C(C)/C=C/C=C(\C)C1=Cc2cc(C(C)(C)C)cc(C(C)(C)C)c2OC1` as the molecule, how does the melting point read?
The melting point was 130 to 131 °C.

Which melting point does the source give for `CC1(C)CC(NC(=O)C(=O)NCCO)CC(C)(C)N1OC1CCCCC1` here?
The melting point was 190 to 192 °C.

With `Cn1c(=O)c2c(ncn2CCCN2CC=C(c3c[nH]c4ccccc34)CC2)n(C)c1=O` as the molecule, how does the melting point read?
The melting point was 243 °C.

With `Oc1cc2cc(-c3ccccc3)sc2c(Cl)c1Cl` as the molecule, how does the melting point read?
Its melting point is 122 to 124 °C.

Which melting point does the source give for `CCCCOC(=O)c1ccc(N2CCN(CCCS(=O)(=O)O)CC2)cc1` here?
The melting point was 232 to 234 °C.

With `CCCCNC(=O)[C@H](C)C[C@H](O)[C@H](CC1CCCCC1)NC(=O)[C@H](Cc1cscn1)NC(=O)[C@@H](CC(=O)N1CCOCC1)Cc1ccc(OC)cc1` as the molecule, how does the melting point read?
Its melting point is 130 to 132 °C.

With `CC1(C)Oc2cccnc2C2OC21` (stereo unspecified) as the molecule, how does the melting point read?
Its melting point is 65 to 67 °C.

For `COC1CCN(c2cc3c(cc2C#Cc2ccccc2)NC(=O)CC(c2cccc(C#N)c2)=N3)CC1`, which melting point is on record?
The melting point was 250 to 251 °C.

For `Cc1cc(F)ccc1NC(=O)c1cc([N+](=O)[O-])ccc1NC(=O)CF`, which melting point is on record?
Its melting point is 237 to 239 °C.

Which melting point does the source give for `O=C(C1CCC(Nc2nccc(-n3nnc4c(-c5ccoc5)cccc43)n2)CC1)N1CCC(O)CC1` (stereo unspecified) here?
The melting point was 243 to 244 °C.

Which melting point does the source give for `O=C(Nc1cccnn1)N1CCN(c2nccc(-c3cc(F)cc(F)c3)n2)CC1` here?
The melting point was 270 to 271 °C.

Which melting point does the source give for `CS(=O)(=O)Oc1ccc2c(=O)c(C(=O)O)cn3c2c1CCC3` here?
Its melting point is 270 to 275 °C.

For `CCCCCCCN(CCO)c1cccc(O)c1`, which melting point is on record?
Its melting point is 45 to 47 °C.

With `CCOC(=O)Cc1cc(OC)c(OC(C)=O)c(C2(OC(C)=O)C(=O)c3ccccc3C2=O)c1` as the molecule, how does the melting point read?
Its melting point is 102 to 107 °C.
